This note sets out measurements from ChEMBL document CHEMBL3137381, “MMV Box Onchocerca lienalis screening set”.

Structures are written as SMILES.

Common to all, as to type: functional
In test [1] the test system is Onchocerca lienalis. The test can be described thus: MMV: Percent motility assay at a compound concentration of 7.8e-7 M. Activity score legend: 3: Active, 2: Moderately active; 1: Inactive, 0: Toxic. The following applies: at 0.78 µM.
Test [2] deals with Onchocerca lienalis. The test can be described thus: MMV: Percent motility assay at a compound concentration of 1.25e-5 M. Activity score legend: 3: Active, 2: Moderately active; 1: Inactive, 0: Toxic. As to conditions: at 12.5 µM.
For test [3], the system named is Onchocerca lienalis. Kind of test: MMV: Percent motility assay at a compound concentration of 3.1e-6 M. Activity score legend: 3: Active, 2: Moderately active; 1: Inactive, 0: Toxic. As to conditions: at 3.1 µM.
The subject of test [4] is Onchocerca lienalis. Kind of test: MMV: Percent motility assay at a compound concentration of 1.9e-7 M. Activity score legend: 3: Active, 2: Moderately active; 1: Inactive, 0: Toxic. The following applies: at 0.19 µM.

For `CN1CCN(c2ccc(Nc3c4ccccc4nc4ccccc34)cc2)CC1`, the Motility in test [1], in test [2], in test [3] and in test [4] was 100% in each case.

Turning to `CCN1CCCC1CNc1[nH]cnc2c3cc(Cl)ccc3nc1-2` (stereo not drawn), the Motility in test [1], in test [2], in test [3] and in test [4] was 100% each time.

As to `COc1ccc(-c2c(C)nn3c(N)c(C#N)cnc23)cc1OC`, the Motility in test [1], in test [2], in test [3] and in test [4] was 100% in each case.

In the case of `CSC1=NC(=Nc2c(C)cccc2C)C2(CCC(C(C)(C)C)CC2)N1c1ccc(Cl)cc1` (stereo not drawn), the Motility in test [1], in test [2], in test [3] and in test [4] was 100% each time.

With `COc1ccc(-c2cc3c(SCC(=O)Nc4cc(C(F)(F)F)ccc4Cl)nccn3n2)cc1`, the Motility in test [1], in test [2], in test [3] and in test [4] was 100% each time.

As for `CCN(CC)CCNc1ncnc2c1[nH]c1ccc(Cl)cc12`, the Motility in test [1], in test [2], in test [3] and in test [4] was 100% in each case.

With `CCOC(=O)c1cnc2ccc(CC)cc2c1O`, the Motility in test [1], in test [2], in test [3] and in test [4] was 100% each time.

Take `CCN(CC)CCNc1ccnc2cc(Cl)ccc12`: the Motility in test [1], in test [2], in test [3] and in test [4] was 100% each time.

On to `Cc1cc(Nc2ccc3ccccc3c2)n2ncnc2n1`, for which the Motility in test [1], in test [2], in test [3] and in test [4] was 100% throughout.

As to `COc1ccc(-n2ccnc2SCC(=O)Nc2cc(C)ccc2C)c(OC)c1`, the Motility in test [1], in test [2], in test [3] and in test [4] was 100% each time.

As for `CCN1CCN(Cc2ccc(NC(=O)c3cc4ccc5cccnc5c4[nH]3)cc2)CC1`, the Motility in test [1], in test [2], in test [3] and in test [4] was 100% each time.

For `O=C(O)C1Cc2c([nH]c3ccccc23)C(c2ccc(Cl)cc2Cl)N1` (stereo not drawn), the Motility in test [1], in test [2], in test [3] and in test [4] was 100% each time.

For the compound `CCC(c1ccccc1)c1nn2c(-c3cccs3)nnc2s1` (stereo not drawn), the Motility in test [1], in test [2], in test [3] and in test [4] was 100% each time.

`CC(C)(C)c1ccc(O)c(CNC2CCCCC2)c1`: the Motility in test [1], in test [2], in test [3] and in test [4] was 100% in each case.

Turning to `CCOc1cc2c(cc1OCC)C(c1cc(OC)c(O)cc1Cl)NCC2` (stereo not drawn), the Motility in test [1], in test [2], in test [3] and in test [4] was 100% in each case.

For `CC1CN(C(=O)c2sc3ccccc3c2Cl)CC(C)O1` (stereo not drawn), the Motility in test [1], in test [2], in test [3] and in test [4] was 100% in each case.

On to `CN(C)c1ccc(C=Cc2nc(=O)c3ccccc3o2)cc1`, for which the Motility in test [1], in test [2], in test [3] and in test [4] was 100% each time.

For `CCOC(=O)c1c(NC(=O)c2ccccc2)sc2c(O)c(CN(CC)CC)ccc12`, the Motility in test [1], in test [2], in test [3] and in test [4] was 100% in each case.

As for `OC(CNC1CCCCC1)Cn1c2ccccc2c2ccccc21` (stereo not drawn), the Motility is on record as 100% in test [1], 60% in test [2], 100% in test [3] and 100% in test [4].

Consider `COc1cccc(C=Cc2nc(=O)c3ccccc3o2)c1OC`, for which the Motility in test [1], in test [2], in test [3] and in test [4] was 100% each time.

Regarding `CCCN(CCC)CC(O)COc1ccccc1C(=O)Nc1ccccc1` (stereo not drawn), the Motility in test [1], in test [2], in test [3] and in test [4] was 100% each time.

For `COc1ccc(C=C2SC(=N)N(c3ccccc3OC)C2=O)cc1`, the Motility in test [1], in test [2], in test [3] and in test [4] was 100% throughout.

As to `COc1ccc(NC(=O)C2c3ccccc3C(=O)N(CC(C)C)C2c2cccs2)cc1Cl` (stereo not drawn), the Motility in test [1], in test [2], in test [3] and in test [4] was 100% in each case.

Take `CCOC(=O)c1c(C)n(-c2ccc(Cl)cc2)c2ccc(OC(=O)C=Cc3ccccc3)cc12`: the Motility in test [1], in test [2], in test [3] and in test [4] was 100% throughout.

Turning to `COc1ccc2c(c1)OC(O)(C(F)(F)C(F)(F)F)CC2=O` (stereo not drawn), the Motility in test [1], in test [2], in test [3] and in test [4] was 100% throughout.

`C=CC12CCN(CC1)C(C(O)c1ccnc3ccc(OC)cc13)C2.Cl` (stereo not drawn): the Motility in test [1], in test [2], in test [3] and in test [4] was 100% throughout.

Turning to `Cc1ccc(-c2cc3nc4c(c(O)n3n2)CCCC4)cc1`, the Motility in test [1], in test [2], in test [3] and in test [4] was 100% throughout.

In the case of `COc1ccccc1CNC(=O)CCn1c(=O)[nH]c2ccccc2c1=O`, the Motility in test [1], in test [2], in test [3] and in test [4] was 100% in each case.

In the case of `c1ccc2cc3c(Nc4ccc(N5CCOCC5)cc4)ccnc3cc2c1`, the Motility in test [1], in test [2], in test [3] and in test [4] was 100% throughout.

On to `Cc1cc(C)c2c(c1)OCN(Cc1ccccc1Cl)C2`, for which the Motility in test [1], in test [2], in test [3] and in test [4] was 100% each time.

Regarding `COc1ccccc1NC1=C(N2CCCCC2)C(=O)c2ccccc2C1=O`, the Motility in test [1], in test [2], in test [3] and in test [4] was 100% each time.

For the compound `CCOC(=O)c1cn(CC)c2cc(N3CCCCC3)c(F)cc2c1=O`, the Motility in test [1], in test [2], in test [3] and in test [4] was 100% throughout.

Consider `CCCc1cc(O)c2c3c(c(=O)oc2c1)CN(C)CC3`, for which the Motility in test [1] amounted to 100%; in test [2], 66.6%; in test [3], 100%; in test [4] it was 100%.

For `Cc1cc(NC(=O)C2c3ccccc3C(=O)N(CC(C)C)C2c2cccs2)no1` (stereo not drawn), the Motility in test [1], in test [2], in test [3] and in test [4] was 100% each time.

Regarding `Cl.Oc1ccccc1CNCC12CC3CC(CC(C3)C1)C2`, the Motility in test [1], in test [2], in test [3] and in test [4] was 100% in each case.

For the compound `COc1ccc(-c2nc3cc(Cc4ccc5[nH]c(-c6ccc(OC)cc6)nc5c4)ccc3[nH]2)cc1`, the Motility in test [1] stood at 100%; in test [2], 80%; in test [3], 100%; in test [4], 100%.

As for `Cc1cc(Nc2ccc(Cl)cc2)n2nc(C(F)(F)F)nc2n1`, the Motility in test [1], in test [2], in test [3] and in test [4] was 100% in each case.

With `CCCCCCOC(=O)C1=C(C)NC(=O)NC1c1ccccc1F` (stereo not drawn), the Motility in test [1] is recorded as 100%; in test [2], 6%; in test [3], 100%; in test [4] it was 100%.

Regarding `Cc1ccc(N2C3c4ccccc4N(S(=O)(=O)c4ccc(C)cc4)C2c2ccccc2N3S(=O)(=O)c2ccc(C)cc2)cc1`, the Motility in test [1], in test [2], in test [3] and in test [4] was 100% throughout.

Take `Cc1ccc(Nc2nc(NCCO)c3ccccc3n2)cc1C`: the Motility in test [1] was 100%; in test [2], 33.33%; in test [3] it was 100%; in test [4], 100%.

For the compound `COc1ccc(NC(=O)C2c3ccccc3C(=O)N(CC(C)C)C2c2cccs2)cc1` (stereo not drawn), the Motility in test [1], in test [2], in test [3] and in test [4] was 100% in each case.

For the compound `c1ccc(Cn2c(N=Nc3c(Nc4ccccc4)ccc4ccccc34)nc3ccccc32)cc1`, the Motility in test [1], in test [2], in test [3] and in test [4] was 100% in each case.
